Results reported in ChEMBL document CHEMBL5576118, “Structure of Designer Antibody-like Peptides Binding to the Human C5a with Potential to Modulate the C5a Receptor Signaling” (J Med Chem, 2024).
Calls of active or inactive are those of the source. No cut-off for these calls is given here.

What was measured:
[1] = target: T1, C5a anaphylatoxin chemotactic receptor 2 (Homo sapiens, UniProt Q9P296); experiment: Binding affinity to N-terminal peptide SR13 of C5aR2 (14 to 32 residues)(unknown origin) assessed as dissociation constant by fluorescence based analysis
T1 sequence (Q9P296 whole entry, the tested form may be a part): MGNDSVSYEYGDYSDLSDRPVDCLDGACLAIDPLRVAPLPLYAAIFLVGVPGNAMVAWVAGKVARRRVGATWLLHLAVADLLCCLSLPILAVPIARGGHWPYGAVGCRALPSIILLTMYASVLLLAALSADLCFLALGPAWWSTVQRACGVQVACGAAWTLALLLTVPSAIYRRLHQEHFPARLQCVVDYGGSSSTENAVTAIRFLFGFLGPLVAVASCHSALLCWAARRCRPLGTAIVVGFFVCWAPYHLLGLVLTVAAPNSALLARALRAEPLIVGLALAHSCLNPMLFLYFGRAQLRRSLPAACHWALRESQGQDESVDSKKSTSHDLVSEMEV

Complement C5 [2] = target: T2, Complement C5 (Homo sapiens, UniProt P01031); experiment: Binding affinity to C5a (unknown origin) assessed as dissociation constant by fluorescence quenching analysis
Complement C5 [3] = target: T2, Complement C5; experiment: Binding affinity to C5a (unknown origin) at 10 uM by FT-IR analysis; conditions: filed as modulator
HeLa = experiment: Cytotoxicity against human HeLa cells assessed as cellular viability at 0.19 to 100 uM incubated for 18 hrs by MTT assay; format: toxicity, cell-based; conditions: dose 0.19-100 µM
[4] = target: T3, C5a anaphylatoxin chemotactic receptor 1 (Homo sapiens, UniProt P21730); experiment: Binding affinity to N-terminal peptide SR3 of C5aR1 (1 to 28 residues)(unknown origin) assessed as dissociation constant by fluorescence based analysis
T3 sequence (P21730 whole entry): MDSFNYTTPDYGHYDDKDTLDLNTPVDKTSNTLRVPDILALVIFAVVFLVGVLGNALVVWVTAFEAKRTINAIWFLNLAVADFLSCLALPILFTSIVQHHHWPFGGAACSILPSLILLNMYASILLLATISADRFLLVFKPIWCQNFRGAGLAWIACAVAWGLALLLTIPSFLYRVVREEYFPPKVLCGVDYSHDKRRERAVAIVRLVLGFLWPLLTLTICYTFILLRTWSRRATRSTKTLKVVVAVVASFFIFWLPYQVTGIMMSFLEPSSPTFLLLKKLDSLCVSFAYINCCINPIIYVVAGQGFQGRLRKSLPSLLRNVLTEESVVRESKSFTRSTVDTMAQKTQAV

Erythrocyte = experiment: Hemolytic activity against human erythrocytes at 0.19 to 100 uM incubated for 1 hr by absorbance based assay; format: toxicity, cell-based; conditions: dose 0.19-100 µM
HEK293 = experiment: Cytotoxicity against human HEK293 cells assessed as cellular viability at 0.19 to 100 uM incubated for 18 hrs by MTT assay; format: toxicity, cell-based; conditions: hek293, 18 h, dose 0.19-100 µM
Complement C5 [5] = target: T2, Complement C5; experiment: Binding affinity to C5a (unknown origin) assessed as change in near-UV CD signature at 50 uM; conditions: filed as modulator
trypsin = trypsin (Homo sapiens, UniProt P07477+P07478+P35030); experiment: Induction of trypsin (unknown origin)-mediated proteolysis of compound incubated for 4 hrs by LC-HRMS spectroscopy; format: protein assay; conditions: trypsin (enzyme incubation), read-out: Activity
[6] = target: T1, C5a anaphylatoxin chemotactic receptor 2; experiment: Binding affinity to N-terminal peptide SR12 of C5aR2 (6 to 32 residues)(unknown origin) assessed as dissociation constant by fluorescence based analysis
[7] = target: T3, C5a anaphylatoxin chemotactic receptor 1; experiment: Binding affinity to N-terminal peptide SR5 of C5aR1 (1 to 28 residues)(unknown origin) assessed as dissociation constant by fluorescence based analysis
Complement C5 [8] = target: T2, Complement C5; experiment: Binding affinity to C5a (unknown origin) at 2 mM by 1H NMR analysis; conditions: filed as modulator
Complement C5 [9] = target: T2, Complement C5; experiment: Binding affinity to C5a (unknown origin) assessed as dissociation constant incubated for 1 hr by CD analysis
Complement C5 [10] = target: T2, Complement C5; experiment: Binding affinity to C5a (unknown origin) assessed as tryptophan lifetime by TCSPC analysis (reference value: 2.70 +/- 0.03 nanoseconds); conditions: filed as modulator

SMILES: CC[C@H](C)[C@H](NC(=O)[C@H](CO)NC(=O)[C@@H](CCC(=O)O)NC(=O)[C@H](CCCNC(=N)N)NC(=O)[C@@H]1CCCN1C(=O)[C@@H](Cc1ccccc1)NC(=O)[C@H](CC(=O)O)NC(=O)[C@@H](CCCNC(=N)N)NC(=O)[C@H](CCCCN)NC(=O)[C@H](Cc1c[nH]c2ccccc12)NC(=O)[C@H](CCSC)NC(=O)[C@@H](CCC(=O)O)NC(=O)[C@H](CC(=O)O)NC(=O)[C@H](CC(C)C)NC(=O)CNC(=O)[C@H]1CCCN1C(=O)[C@H](Cc1ccc(O)cc1)NC(=O)[C@H](CCC(N)=O)NC(=O)[C@@H](CC(=O)O)NC(=O)[C@H](CCCNC(=N)N)NC(=O)[C@@H](NC(=O)[C@H](Cc1cnc[nH]1)NC(=O)[C@@H](CCC(=O)O)NC(=O)[C@H](CC(N)=O)NC(=O)[C@H](CC(C)C)NC(C)=O)C(C)C)C(=O)N[C@@H](CCCNC(=N)N)C(=O)N[C@H](C(=O)N[C@@H](Cc1cnc[nH]1)C(=O)N[C@H](C(=O)N[C@@H](C)C(N)=O)[C@@H](C)O)[C@@H](C)O
- Kd [1]: 299 nM
- Kd (Complement C5 [2]): 880 nM
- Activity (Complement C5 [3]): Active
- Activity (HeLa): Non-Toxic
- Kd [4]: 126 nM
- Activity (Erythrocyte): Non-Toxic
- Activity (HEK293): Non-Toxic
- Activity (Complement C5 [5]): Active
- metabolised at 4 h (trypsin): 0%
- Kd [6]: 203 nM
- Kd [7]: 105 nM
- Activity (Complement C5 [8]): Active
- Kd (Complement C5 [9]): 700 nM

SMILES: CC[C@H](C)[C@H](NC(=O)[C@H](CO)NC(=O)[C@H](CCC(=O)O)NC(=O)[C@H](CCCNC(=N)N)NC(=O)[C@@H]1CCCN1C(=O)[C@H](Cc1ccccc1)NC(=O)[C@H](CC(=O)O)NC(=O)[C@H](CCCNC(=N)N)NC(=O)[C@H](CCCCN)NC(=O)[C@H](Cc1c[nH]c2ccccc12)NC(=O)[C@H](CCSC)NC(=O)[C@H](CCC(=O)O)NC(=O)[C@H](CC(=O)O)NC(=O)[C@H](CC(C)C)NC(=O)CNC(=O)[C@@H]1CCCN1C(=O)[C@H](Cc1ccc(O)cc1)NC(=O)[C@H](CCC(N)=O)NC(=O)[C@H](CC(=O)O)NC(=O)[C@H](CCCNC(=N)N)NC(=O)[C@@H](NC(=O)[C@H](Cc1cnc[nH]1)NC(=O)[C@H](CCC(=O)O)NC(=O)[C@H](CC(N)=O)NC(=O)[C@H](CC(C)C)NC(C)=O)C(C)C)C(=O)N[C@@H](CCCNC(=N)N)C(=O)N[C@H](C(=O)N[C@@H](Cc1cnc[nH]1)C(=O)N[C@H](C(=O)N[C@@H](C)C(N)=O)[C@@H](C)O)[C@@H](C)O
- Kd [1]: 299 nM
- Kd (Complement C5 [2]): 820 nM
- Activity (Complement C5 [3]): Active
- Activity (HeLa): Non-Toxic
- Kd [4]: 126 nM
- Activity (Erythrocyte): Non-Toxic
- Activity (HEK293): Non-Toxic
- Time (Complement C5 [10]): 1.99 nanoseconds
- Activity (Complement C5 [5]): Active
- Kd [6]: 203 nM
- Kd [7]: 105 nM
- Activity (Complement C5 [8]): Active
- Kd (Complement C5 [9]): 940 nM
